Tested on: Human Monocytic Leukemia MV4-11
Assay: Cell proliferation experiment (Alarm blue, 72 h, EC50)
Format: cell-based
Details: Homo sapiens, MV4-11, MV4;11 cells
Procedure: (2.1) Cell Proliferation Experiment:
Reagents: RPMI-1640 medium, McCoy's 5A medium, IMDM medium, MEM medium, L-15 medium, fetal bovine serum, Penicillin-Streptomycin double antibody, trypsin, etc., 2-mercaptoethanol, NEAA, pyruvate, etc.
The cells were cultured in conventional ways, and the cells should be passed at least for at least 2 generations before plating. Cells at the logarithmic growth phase are collected, prepared into single cell suspensions and counted. The concentration of cells was adjusted to the desired concentration, and cells were inoculated into a 96-well cell culture plate at 100 μl per well. 100 μL of complete medium of the test compound were added to each well, set up 2 duplicates for each concentration, and diluted with a 5-fold gradient, and continue to culture for 72 h. All cells were subjected to EC50 test for corresponding samples.
The fluorescence intensity of each well was detected using the Alarm blue method, and EC50 was calculated.
EC50 was calculated according to the following formula:
Y=Max+(Min−Max)/[1+(X/EC50)×Slope]
wherein Min, Max and Slope represent the minimum, maximum and slope respectively.

| SMILES | EC50 [nM] |
| --- | --- |
| CC[C@@H]1C(=O)N(C)c2cnc(Nc3ccc(C(=O)NCCOCCOCCNc4cccc5c4CN(C4CCC(=O)NC4=O)C5=O)cc3OC)nc2N1Cc1ccc(Br)cc1 (stereo partly shown) [UB-180568] | 10 to 100 |
| CC[C@@H]1C(=O)N(C)c2cnc(Nc3ccc(C(=O)NCCOCCOCCOCCNc4cccc5c4CN(C4CCC(=O)NC4=O)C5=O)cc3OC)nc2N1Cc1ccc(Br)cc1 (stereo partly shown) [UB-180569] | 10 to 100 |
| CC[C@@H]1C(=O)N(C)c2cnc(Nc3ccc(C(=O)NCC(=O)Nc4cccc5c4CN(C4CCC(=O)NC4=O)C5=O)cc3OC)nc2N1C1CCCC1 (stereo partly shown) [UB-180570] | > 1000 |
| CC[C@@H]1C(=O)N(C)c2cnc(Nc3ccc(C(=O)NC4(C(=O)Nc5cccc6c5CN(C5CCC(=O)NC5=O)C6=O)CC4)cc3OC)nc2N1C1CCCC1 (stereo partly shown) [UB-180571] | 100 to 1000 |
| Cc1ncsc1-c1ccc(CNC(=O)[C@@H]2C[C@@H](O)CN2C(=O)[C@@H](NC(=O)CCOCCOCCOCCOCCNC(=O)[C@]2(Cc3cccc(Nc4nccs4)n3)CC[C@@H](Oc3cccc(Cl)c3F)CC2)C(C)(C)C)cc1 [UB-180576] | 100 to 1000 |
| Cc1ncsc1-c1ccc(CNC(=O)[C@@H]2C[C@@H](O)CN2C(=O)[C@@H](NC(=O)COCCOCCOCCOCCNC(=O)[C@]2(Cc3cccc(Nc4nccs4)n3)CC[C@@H](Oc3cccc(Cl)c3F)CC2)C(C)(C)C)cc1 [UB-180580] | 100 to 1000 |
| Cc1ncsc1-c1ccc(CNC(=O)[C@@H]2C[C@@H](O)CN2C(=O)[C@@H](NC(=O)COCCOCCOCCNC(=O)[C@]2(Cc3cccc(Nc4nccs4)n3)CC[C@@H](Oc3cccc(Cl)c3F)CC2)C(C)(C)C)cc1 [UB-180584] | 100 to 1000 |
| CC[C@@H]1c2c(C#N)ncn2-c2cnc(Nc3ccc(C(=O)NC4CCN(CCCCC(=O)N[C@H](C(=O)N5C[C@H](O)C[C@H]5C(=O)NCc5ccc(-c6scnc6C)cc5)C(C)(C)C)CC4)cc3OC)nc2N1C1CCCC1 [UB-180591] | 100 to 1000 |
| CC[C@@H]1c2c(C#N)ncn2-c2cnc(Nc3ccc(C(=O)NCC(=O)N[C@H](C(=O)N4C[C@H](O)C[C@H]4C(=O)NCc4ccc(-c5scnc5C)cc4)C(C)(C)C)cc3OC)nc2N1C1CCCC1 [UB-180592] | 100 to 1000 |
| CC[C@@H]1c2c(C#N)ncn2-c2cnc(Nc3ccc(C(=O)NCCCNc4cccc5c4C(=O)N(C4CCC(=O)NC4=O)C5=O)cc3OC)nc2N1C1CCCC1 (stereo partly shown) [UB-180593] | 100 to 1000 |
| CC[C@@H]1C(=O)N(C)c2cnc(Nc3ccc(C(=O)NC4CCN(CCCCC(=O)Nc5cccc6c5CN(C5CCC(=O)NC5=O)C6=O)CC4)cc3OC)nc2N1C1CCCC1 (stereo partly shown) [UB-180596] | 10 to 100 |
| CC[C@@H]1c2c(C#N)ncn2-c2cnc(Nc3ccc(C(=O)NC4CCN(CCCCCOCC(=O)N[C@H](C(=O)N5C[C@H](O)C[C@H]5C(=O)NCc5ccc(-c6scnc6C)cc5)C(C)(C)C)CC4)cc3OC)nc2N1C1CCCC1 [UB-180597] | > 1000 |
| Cc1ncsc1-c1ccc(CNC(=O)[C@@H]2C[C@@H](O)CN2C(=O)[C@@H](NC(=O)CCOCCOCCNC(=O)[C@]2(Cc3cccc(Nc4nccs4)n3)CC[C@@H](Oc3cccc(Cl)c3F)CC2)C(C)(C)C)cc1 [UB-180599] | > 1000 |
| Cc1ncsc1-c1ccc(CNC(=O)[C@@H]2C[C@@H](O)CN2C(=O)[C@@H](NC(=O)CCOCCCOCCOCCNC(=O)[C@]2(Cc3cccc(Nc4nccs4)n3)CC[C@@H](Oc3cccc(Cl)c3F)CC2)C(C)(C)C)cc1 [UB-180600] | 100 to 1000 |
| CC[C@@H]1c2c(C#N)ncn2-c2cnc(Nc3ccc(C(=O)NCCNc4cccc5c4C(=O)N(C4CCC(=O)NC4=O)C5=O)cc3OC)nc2N1C1CCCC1 (stereo partly shown) [UB-180607] | 10 to 100 |
| CC[C@@H]1c2c(C#N)ncn2-c2cnc(Nc3ccc(C(=O)NCCNc4cccc5c4CN(C4CCC(=O)NC4=O)C5=O)cc3OC)nc2N1C1CCCC1 (stereo partly shown) [UB-180608] | 100 to 1000 |
| Cc1ncsc1-c1ccc(CNC(=O)[C@@H]2C[C@@H](O)CN2C(=O)[C@@H](NC(=O)CCOCCOCCOCCNC(=O)[C@]2(Cc3cccc(Nc4nccs4)n3)CC[C@@H](Oc3cccc(Cl)c3F)CC2)C(C)(C)C)cc1 [UB-180612] | 100 to 1000 |
| Cc1ncsc1-c1ccc(CNC(=O)[C@@H]2C[C@@H](O)CN2C(=O)[C@@H](NC(=O)CCNC(=O)[C@]2(Cc3cccc(Nc4nccs4)n3)CC[C@@H](Oc3cccc(Cl)c3F)CC2)C(C)(C)C)cc1 [UB-180614] | > 1000 |
| CC[C@@H]1C(=O)N(C)c2cnc(Nc3ccc(C(=O)NCCC(=O)Nc4cccc5c4CN(C4CCC(=O)NC4=O)C5=O)cc3OC)nc2N1C1CCCC1 (stereo partly shown) [UB-180618] | > 1000 |
| CC[C@@H]1C(=O)N(C)c2cnc(Nc3ccc(C(=O)NCCOCCOCCNCCC(=O)N[C@H](C(=O)N4C[C@H](O)C[C@H]4C(=O)NCc4ccc(-c5scnc5C)cc4)C(C)(C)C)cc3OC)nc2N1C1CCCC1 [UB-180619] | > 1000 |
| CC[C@@H]1c2c(C#N)ncn2-c2cnc(Nc3ccc(C(=O)NCCC(=O)Nc4cccc5c4CN(C4CCC(=O)NC4=O)C5=O)cc3OC)nc2N1C1CCCC1 (stereo partly shown) [UB-180621] | > 1000 |
| CC[C@@H]1c2c(C#N)ncn2-c2cnc(Nc3ccc(C(=O)NCCC(=O)N[C@H](C(=O)N4C[C@H](O)C[C@H]4C(=O)NCc4ccc(-c5scnc5C)cc4)C(C)(C)C)cc3OC)nc2N1C1CCCC1 [UB-180623] | > 1000 |

The next lines start with the values.

| EC50 [nM] | SMILES |
| --- | --- |
| 100 to 1000 | Cc1ncsc1-c1ccc(CNC(=O)[C@@H]2C[C@@H](O)CN2C(=O)[C@@H](NC(=O)CCCNC(=O)c2ccc(Nc3ncc4c(n3)-c3ccc(Cl)cc3C(c3c(F)cccc3F)=NC4)cc2)C(C)(C)C)cc1 [UB-180505] |
| 100 to 1000 | Cc1ncsc1-c1ccc(CNC(=O)[C@@H]2C[C@@H](O)CN2C(=O)[C@@H](NC(=O)COCCCNC(=O)c2ccc(Nc3ncc4c(n3)-c3ccc(Cl)cc3C(c3c(F)cccc3F)=NC4)cc2)C(C)(C)C)cc1 [UB-180506] |
| 10 to 100 | Cc1ncsc1-c1ccc(CNC(=O)[C@@H]2C[C@@H](O)CN2C(=O)[C@@H](NC(=O)COCCOCCOCCNC(=O)c2ccc(Nc3ncc4c(n3)-c3ccc(Cl)cc3C(c3c(F)cccc3F)=NC4)cc2)C(C)(C)C)cc1 [UB-180514] |
| > 1000 | Cc1ncsc1-c1ccc(CNC(=O)[C@@H]2C[C@@H](O)CN2C(=O)[C@@H](NC(=O)COCCOCCOCCOCCNC(=O)c2ccc(Nc3ncc4c(n3)-c3ccc(Cl)cc3C(c3c(F)cccc3F)=NC4)cc2)C(C)(C)C)cc1 [UB-180527] |
| 10 to 100 | Cc1ncsc1-c1ccc(CNC(=O)[C@@H]2C[C@@H](O)CN2C(=O)[C@@H](NC(=O)CCOCCOCCOCCOCCNC(=O)c2ccc(Nc3ncc4c(n3)-c3ccc(Cl)cc3C(c3c(F)cccc3F)=NC4)cc2)C(C)(C)C)cc1 [UB-180531] |
| 100 to 1000 | Cc1ncsc1-c1ccc(CNC(=O)[C@@H]2C[C@@H](O)CN2C(=O)[C@@H](NC(=O)COCCNC(=O)c2ccc(Nc3ncc4c(n3)-c3ccc(Cl)cc3C(c3c(F)cccc3F)=NC4)cc2)C(C)(C)C)cc1 [UB-180532] |
| 100 to 1000 | Cc1ncsc1-c1ccc(CNC(=O)[C@@H]2C[C@@H](O)CN2C(=O)[C@@H](NC(=O)COCCOCCNC(=O)c2ccc(Nc3ncc4c(n3)-c3ccc(Cl)cc3C(c3c(F)cccc3F)=NC4)cc2)C(C)(C)C)cc1 [UB-180533] |
| 100 to 1000 | Cc1ncsc1-c1ccc(CNC(=O)[C@@H]2C[C@@H](O)CN2C(=O)[C@@H](NC(=O)CCOCCOCCNC(=O)c2ccc(Nc3ncc4c(n3)-c3ccc(Cl)cc3C(c3c(F)cccc3F)=NC4)cc2)C(C)(C)C)cc1 [UB-180536] |
| 100 to 1000 | Cc1ncsc1-c1ccc(CNC(=O)[C@@H]2C[C@@H](O)CN2C(=O)[C@@H](NC(=O)COCCCCNC(=O)c2ccc(Nc3ncc4c(n3)-c3ccc(Cl)cc3C(c3c(F)cccc3F)=NC4)cc2)C(C)(C)C)cc1 [UB-180558] |
| > 1000 | Cc1ncsc1-c1ccc(CNC(=O)[C@@H]2C[C@@H](O)CN2C(=O)[C@@H](NC(=O)COCCNC(=O)[C@]2(Cc3cccc(Nc4nccs4)n3)CC[C@@H](Oc3cccc(Cl)c3F)CC2)C(C)(C)C)cc1 [UB-180578] |
| 100 to 1000 | Cc1ncsc1-c1ccc(CNC(=O)[C@@H]2C[C@@H](O)CN2C(=O)[C@@H](NC(=O)CCCNC(=O)[C@]2(Cc3cccc(Nc4nccs4)n3)CC[C@@H](Oc3cccc(Cl)c3F)CC2)C(C)(C)C)cc1 [UB-180583] |
| > 1000 | Cc1ncsc1-c1ccc(CNC(=O)[C@@H]2C[C@@H](O)CN2C(=O)[C@@H](NC(=O)COCCCNC(=O)[C@]2(Cc3cccc(Nc4nccs4)n3)CC[C@@H](Oc3cccc(Cl)c3F)CC2)C(C)(C)C)cc1 [UB-180585] |
| > 1000 | Cc1ncsc1-c1ccc(CNC(=O)[C@@H]2C[C@@H](O)CN2C(=O)[C@@H](NC(=O)COCCOCCNC(=O)[C@]2(Cc3cccc(Nc4nccs4)n3)CC[C@@H](Oc3cccc(Cl)c3F)CC2)C(C)(C)C)cc1 [UB-180587] |
| > 1000 | Cc1ncsc1-c1ccc(CNC(=O)[C@@H]2C[C@@H](O)CN2C(=O)[C@@H](NC(=O)COCCCCNC(=O)[C@]2(Cc3cccc(Nc4nccs4)n3)CC[C@@H](Oc3cccc(Cl)c3F)CC2)C(C)(C)C)cc1 [UB-180589] |
| 10 to 100 | Cc1ncsc1-c1ccc(CNC(=O)[C@@H]2C[C@@H](O)CN2C(=O)[C@@H](NC(=O)CCOCCCOCCOCCNC(=O)c2ccc(Nc3ncc4c(n3)-c3ccc(Cl)cc3C(c3c(F)cccc3F)=NC4)cc2)C(C)(C)C)cc1 [UB-180609] |
| 100 to 1000 | Cc1ncsc1-c1ccc(CNC(=O)[C@@H]2C[C@@H](O)CN2C(=O)[C@@H](NC(=O)CCNC(=O)c2ccc(Nc3ncc4c(n3)-c3ccc(Cl)cc3C(c3c(F)cccc3F)=NC4)cc2)C(C)(C)C)cc1 [UB-180613] |
| 10 to 100 | Cc1ncsc1-c1ccc(CNC(=O)[C@@H]2C[C@@H](O)CN2C(=O)[C@@H](NC(=O)CCOCCOCCOCCNC(=O)c2ccc(Nc3ncc4c(n3)-c3ccc(Cl)cc3C(c3c(F)cccc3F)=NC4)cc2)C(C)(C)C)cc1 [UB-180615] |
| 10 to 100 | CC[C@@H]1C(=O)N(C)c2cnc(Nc3ccc(C(=O)NCCC(=O)N[C@H](C(=O)N4C[C@H](O)C[C@H]4C(=O)NCc4ccc(-c5scnc5C)cc4)C(C)(C)C)cc3OC)nc2N1C1CCCC1 [UB-180622] |

Reference: patent publication US20210369853A1, “TARGETED PROTEASE DEGRADATION PLATFORM” (EUBULUS BIOTHERAPEUTICS INC., priority 2018, published 2021)
